The text below walks through data of PubChem BioAssay (NCI).

This experiment has as its system MDA-MB-468 breast. As to the kind of experiment: DTP human tumour cell line panel, 48 h.

Where “and” joins values, the source holds several entries; their conditions need not be identical. Equal entries are not always repeated.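 Values below derive from 48-hour exposures of cells grown in 96-well plates, with endpoints linearly interpolated between the two concentrations bracketing the appropriate inhibition level. Abbreviation: GI50, concentration required for 50% inhibition of growth. TGI denotes the concentration required for complete inhibition of growth.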

Regarding `CC(C)OC(=O)Nc1ccc(-c2nc(-c3cccc(OCCN4CCOCC4)c3)c(-c3ccnc(Br)c3)[nH]2)cc1`, the GI50 was 2.01 µM and the TGI was 5.3 µM. As to `CCCc1n(Cc2ccc3ccccc3c2)c2ccccc2[n+]1Cc1ccc2ccccc2c1`, the GI50 is 0.13 µM and the TGI was 0.716 µM. Turning to `CC(=O)O[C@H]1C(=O)[C@@]2(C)[C@H]([C@H](OC(=O)c3ccccc3)[C@]3(O)C[C@H](OC(=O)[C@H](OC(=O)OC[C@@H]4COC(C)(C)O4)[C@@H](NC(=O)c4ccccc4)c4ccccc4)C(C)=C1C3(C)C)[C@]1(OC(C)=O)CO[C@@H]1C[C@@H]2O`, the GI50 was 0.028 µM. As for `CN1CCN(Cc2ccc(NC(=O)c3cncc(C#Cc4cnc5ccc(N6CCN(C)CC6)nn45)c3)cc2C(F)(F)F)CC1`, the GI50 is 1.38 µM and the TGI came out at 2.76 µM. Turning to `CCOC(=O)c1ccc2c(c1)c1c(C)c3cnccc3c(C)c1n2C`, the GI50 was 0.289 µM and the TGI came out at 0.962 µM. On the same counts, the results for `Cc1ccc2cc3c(N)c4c(C)ccc(C)c4nc3nc2c1` are 1.47 µM and 3.73 µM. On the same counts, the results for `Cc1cc2nc3c4cc(C=O)ccc4n(CCN(C)C)c3nc2cc1C` are 1.16 µM and 3.21 µM. For `CC[C@H](Nc1cc(C)nc(N)n1)c1nc2cccc(NCc3ccc(C(=O)NO)cc3)c2c(=O)n1-c1ccccc1` the same measures were 1.46 µM and 3.24 µM. `CCCOC(=O)c1ccc2c(c1)[N+](=O)C(C(=O)c1ccccc1)=C(C(F)(F)F)[N+]2=O`: the GI50 is 1.71 µM and the TGI was 3.51 µM.

Turning to `Nc1nonc1-c1nc2cnccc2n1C1CCCCC1`, the GI50 is 6.94 µM and the TGI is over 25 µM.

For `O=C1C=C(Nc2ccc([N+](=O)[O-])cc2)c2ccccc2C1=O`, the GI50 is 3.05 µM and the TGI amounted to 13.4 µM. On to `FC(F)(F)c1cc(Nc2cccc(Oc3ccc(NC4=NCCN4)nc3)c2)ccc1Cl`, for which the GI50 was 1.61 µM and the TGI is 3.44 µM. `COc1ccc(C2C(C#N)=C(N)Oc3c2sc2c(C)cccc32)cc1` (centres undefined): the GI50 is 0.214 µM and the TGI was 0.641 µM. On the same counts, the results for `Clc1ccc(-c2ccc(CNCC3CCNCC3)o2)c(-c2ccccc2)c1` are 1.57 µM and 3.25 µM.

For `Cc1ccc2c(c1)c(C1=C(c3cn(C)c4ccccc34)C(=O)NC1=O)cn2C`, the GI50 was 1.03 µM and the TGI was over 12.6 µM. On the same counts, the results for `COC(=O)/C=C1/SC(=Nc2ccc(C(F)(F)F)cc2)N(CCc2c[nH]c3ccc(O)cc23)C1=O` are 2.11 µM and 5.72 µM. On the same counts, the results for `CCOC(=O)Nc1nc2cc(OC)c(OC)c(OC)c2s1` are over 100 µM and over 100 µM. For the molecule `COC(=O)C(=Cc1ccccc1[N+](=O)[O-])C(=O)OC`, the GI50 was 5.03 µM and the TGI amounted to 28.2 µM.

Regarding `COc1ccc(C(O)c2cc3c(N)c(C(=O)Nc4ccc(Br)cc4)sc3nc2C)cc1` (centres undefined), the GI50 was 2.19 µM and the TGI is 9.09 µM. As to `C=CC(=O)N1CC2(CCC(n3nc(-c4ccc(Oc5ccccc5)cc4)c4c(N)ncnc43)CC2)C1`, the GI50 is 0.244 µM and the TGI worked out at 1.62 µM. As to `CC(=O)N1CCN([C@H]2CCC[C@@H](NC(=O)c3cc4c(F)ccc(C)c4[nH]3)C2)CC1`, the GI50 was 9.06 µM and the TGI worked out at 37.2 µM. Take `COc1cc(C(=O)/C=C/c2c(C)n([O-])c3ccc(C(F)(F)F)cc3[n+]2=O)cc(OC)c1OC`: the GI50 was 1.59 µM and the TGI is 3.49 µM. Consider `C=CCSSC1N=CNc2nc[nH]c21` (centres undefined), for which the GI50 was 0.319 µM and the TGI is 14.7 µM. On the same counts, the results for `COC(=O)c1ccc2[nH]c(O)c(C(=Nc3ccc(N(C)C(=O)CN4CCN(C)CC4)cc3)c3ccc(OC)cc3)c2c1` are 1.6 µM and 3.35 µM. For `Cn1cc(C2=C(c3cn(C)c4ccc(OCc5ccccc5)cc34)C(=O)NC2=O)c2ccccc21` the same measures were over 25 µM and over 25 µM. With `CC/C(=C(\c1ccc(Cl)cc1)c1ccc(OCCN2CCCCC2)cc1)c1ccc(O)cc1`, the GI50 is 1.65 µM and the TGI came out at 3.32 µM. On the same counts, the results for `CC#CC#Cc1cccc(=O)o1` are 1.71 µM and 5.32 µM. For `C[C@@H]1CN(c2ccc3ncc(C#Cc4cncc(C(=O)Nc5ccc(CN6CCN(C)CC6)c(C(F)(F)F)c5)c4)n3n2)C[C@H](C)O1` the same measures were 0.0355 µM and 0.136 µM. For `COC12COC(=O)C1C(c1ccc3c(c1)OCO3)c1cc3c(cc1O2)OCO3` (centres undefined) the same measures were 23 µM and over 100 µM. In the case of `O=C(Nc1ccc(OCc2nnc(-c3ccc(Cl)cc3)o2)c(F)c1)Nc1ccc(Cl)c(Cl)c1`, the GI50 was 2.99 µM and the TGI was 17.7 µM. Consider `CCN(CC)CCNc1ccc(C)c2sc3ccccc3c(=O)c12` (tested in a mixture with another compound), for which the GI50 is 2.06 µM and 1.98 µM; the TGI is 4.22 µM and 4.3 µM. On to `C[C@]12CC[C@@H]3c4ccc(O)cc4CC[C@H]3[C@@H]1CC[C@@H]2NS(=O)(=O)c1cccc(OC(F)(F)F)c1`, for which the GI50 is 2.61 µM and the TGI is 8.01 µM.

Regarding `COc1ccc(/C=C/C(=O)c2ccc(NC(=O)CSc3nnc(-c4ccc(OC)c(OC)c4)n3-c3ccccc3)cc2)cc1`, the GI50 was 1.96 µM and the TGI is 4.55 µM. On to `CC(=O)Nc1cccc(C#Cc2cncnc2Nc2ccc(OCc3cccc(F)c3)c(Cl)c2)n1`, for which the GI50 is 0.557 µM and the TGI was over 6.26 µM. Regarding `O=C(/C=C/c1cccc(O)c1)c1cccc(-n2cc(-c3ccc(Cl)cc3)[nH]c2=O)c1`, the GI50 was 1.7 µM and the TGI was determined as 3.83 µM.
